Results on five compounds are retold here after patent US6117888A, “Thrombin inhibitors” (Merck & Co., Inc., priority 1999, dated 2000).

pKi: −log10 of the molar value. Read-outs that look alike come from different tables or passages of the source.

The assay has as its target human α-thrombin (Homo sapiens, UniProt P00734). The assay is described as follows: In vitro assay for determining proteinase inhibition, human α-thrombin. The assay is classed as biochemical. The protocol:
The assays were carried out at 25° C. in 0.05 M TRIS buffer pH 7.4, 0.15 M NaCl, 0.1% PEG. Trypsin assays also contained 1 mM CaCl2.
Concentrations of stock solutions of Z-GPR-afc were determined from measurements of absorbance at 380 nm of the 7-amino-4-trifluoromethyl coumarin produced upon complete hydrolysis of an aliquot of the stock solution by thrombin.
Times required to achieve equilibration between enzyme and inhibitor were determined in control experiments. Initial velocities of product formation in the absence (Vo) or presence of inhibitor (Vi) were measured. Assuming competitive inhibition, and that unity is negligible compared Km /[S], […] (where [S], [I], and e respectively represent the total concentrations, of substrate, inhibitor and enzyme), the equilibrium constant (Ki) for dissociation of the inhibitor from the enzyme can be obtained from the dependence of Vo /Vi on [I] shown in equation 1.

[1] abbreviates: thrombin, 25° C., 0.05 M TRIS buffer pH 7.4, 0.15 M NaCl, 0.1% PEG, read-out: Inhibitory activity, Ki.

A word on the pKi: it is −log10 of the Ki, conventionally taken in molar units. Regarding `Cc1nc(N)ccc1CNC(=O)Cn1c(C)cc(S(=O)(=O)N2CCCC2)c(N)c1=O`, under setting [1], the pKi was > 8.30. `Cc1nc(N)ccc1CNC(=O)Cn1c(C)cc(S(=O)(=O)NCC2CCC2)c(N)c1=O`: the pKi is > 8.30. Regarding `Cc1nc(N)ccc1CNC(=O)Cn1c(C)cc2c(c1=O)NCCS2(=O)=O`, under setting [1], the negative-log Ki (pKi) was < 8.30.

For `Cc1nc(N)ccc1CNC(=O)Cn1c(C)cc2c(c1=O)NCC(c1ccccc1)S2(=O)=O` (centres unmarked), under setting [1], the pKi is < 8.30. In the case of `Cc1nc(N)ccc1CNC(=O)Cn1c(C)cc2c(c1=O)NCN(CC1CC1)S2(=O)=O`, the pKi was > 8.30.
